Data reported in article PMC12040169 (PLOS Biology, 2025).

Assay: in vitro
Settings: human, hela cells, % viability

Structure (SMILES) | viability at 28.5 h, 10 µM
Cc1ccc(F)c(OC2(C(=O)O)CCN(Cc3ncc[nH]3)CC2)c1 [CBK307062] | 85.2%
Cc1c(C(=O)N2CCC(N3CCSCC3)CC2)[nH]c2c(F)cccc12 [CBK307065] | 96.8%
CC(C)Cn1cncc1CNS(=O)(=O)c1cccc(C(=O)N2CCC2)c1 [CBK307068] | 90.3%
CSc1nccc(N2CCC(NCCn3c(C)cc(C)nc3=O)CC2)n1 [CBK307070] | 85.3%
COc1ccc(Cn2ncnc2CC2CCNCC2)cc1 [CBK307071] | 83.4%
CO[C@@]12CC[C@@H](OCC3CC3)C[C@@H]1N(Cc1c(C)cnn1C)CC2 [CBK307072] | 97%
CNC(=O)CN1C[C@H](NC(=O)c2cccc3c2NCCC3)[C@@H](C(C)C)C1 [CBK307073] | 80.6%
CC(=O)NC1CCN(c2nc(N(C)C)nc3c2CCN(C(C)=O)C3)CC1 [CBK307079] | 85.6%
Cn1ncc2c(NCCCN3CCCC(CO)C3)nc(C(C)(C)C)nc21 (stereo not drawn) [CBK307082] | 93%
COCC(=O)NCc1cc2n(n1)CCN(Cc1cccs1)C2 [CBK307085] | 106%
O=c1cc(N2CCN(CC3(O)CCNC3)CC2)c(-c2ccccc2)n[nH]1 (stereo not drawn) [CBK307088] | 107%
CCOc1ccc(NC(=O)N(C)Cc2noc(CC(C)C)n2)cc1C#N [CBK307089] | 85.2%
COc1cccc2ncn(CCCn3cccn3)c(=O)c12 [CBK307094] | 89.7%
CCN(CC)C(=O)c1c(NC(=O)c2cccs2)sc2c1CCC2 [CBK307096] | 93%
CCCN1CC(NS(=O)(=O)c2ccc(OC)c3c2CCCC3)CC1=O (stereo not drawn) [CBK307098] | 79.7%
O=C(Nc1sc2c(c1C(=O)N1CCOCC1)CCCCC2)c1cccs1 [CBK307099] | 105%
CC1CCc2c(sc(NC(=O)c3cccs3)c2C(=O)N2CCOCC2)C1 (stereo not drawn) [CBK307101] | 100%
CCc1noc(CN2CCCC(c3ccc(C(=O)O)cc3)C2)n1 (stereo not drawn) [CBK307102] | 105%
CCC(NS(=O)(=O)c1cc(-n2cccn2)ccc1OC)C1CC(O)C1 (stereo not drawn) [CBK307103] | 106%
CCOc1ccc(-c2ccnc(N[C@H]3CC[C@@H](N)CC3)n2)cc1C(=O)O [CBK307104] | 89.8%
Cn1cc(CN2C[C@H]3CN(C(=O)C4CCC4)C[C@@]3(C(=O)O)C2)cc1C#N [CBK307105] | 101%
CO[C@H]1CN(C)C[C@@H]1NC(=O)c1cccc2c1NCCC2 [CBK307107] | 106%
CC(C)Cn1c(=O)c2c(nc3n2CCS3)n(C)c1=O [CBK307109] | 98.1%

Structure (SMILES) | viability at 28.5 h, 10 µM
CCOc1ccc(Cl)cc1CN(C)C(=O)NC(c1ncnn1C)C(C)C (stereo not drawn) [CBK307110] | 80.5%
CCOc1ccc(Cl)cc1CN(C)C(=O)NCc1nccn1C(C)C [CBK307111] | 101%
CCO[C@H]1COC[C@@H]1NC(=O)c1cccc2c1NCCC2 [CBK307113] | 94.9%
CC(C)(C)C1CCc2c(sc(NC(=O)c3cccs3)c2C(N)=O)C1 (stereo not drawn) [CBK307114] | 85.4%
CC(C)N1CCCC2(CCN(C(=O)Cc3c[nH]c(=O)n(C)c3=O)C2)C1=O (stereo not drawn) [CBK307115] | 87.8%
O=C(NCCCN1CCCC(O)C1)N1CCCN(Cc2cccs2)CC1 (stereo not drawn) [CBK307116] | 82%
CC(O)CNC(=O)c1cn2cc(-c3cccs3)n(CC3CC3)c(=O)c2n1 (stereo not drawn) [CBK307117] | 81.3%
Cc1cnc(C)c(N2CCN(c3cc([C@H]4C[C@@H](N)C4)ncn3)CC2)n1 [CBK307118] | 88.7%
CN1CCOCC(CNC(=O)c2ccc(-c3cnc(N)nc3)cc2)C1 (stereo not drawn) [CBK307119] | 100%
Cc1nnc(CCn2cnc3cccnc3c2=O)s1 [CBK307125] | 96.7%
COc1coc(CN2C(=O)COc3cccnc32)cc1=O [CBK307126] | 96.7%
CCCc1cn(C2CCN(c3cc(-n4cc(C)cn4)ncn3)CC2)nn1 [CBK307127] | 104%
O=C(NCCn1cccn1)N1CCCN(Cc2ccncc2)CC1 [CBK307129] | 90.1%
COCCn1c(CO)nnc1[C@H]1C[C@@H](NC(=O)c2ccc(O)c(F)c2)C1 [CBK307132] | 74.1%
CCn1c(C)nnc1SCCNC(=O)c1cnc(N(C)C)nc1C [CBK307135] | 93%
CSCCCN1CCn2nc(CNc3cnccn3)cc2C1 [CBK307136] | 92.5%
COc1ccc(Cc2nc(CC3CCCOC3)n(CC(F)(F)F)n2)cc1 (stereo not drawn) [CBK307140] | 112%
CCOC(=O)c1cn(CC)c2cc(N3CCN(C)CC3)c(F)cc2c1=O [CBK307141] | 92.9%
CCOC(=O)c1cn(CC)c2cc(N3CCOCC3)c(F)cc2c1=O [CBK307142] | 95.7%
Cc1cccn2c(CN3CCCOCC3)c(C(=O)N3CCOCC3)nc12 [CBK307144] | 111%
CCn1cc(C(=O)NN)c(=O)c2cc(F)c(N3CCCCCC3)cc21 [CBK307145] | 100%
CCNC(=O)N1CCC(Oc2cc(C)ccc2F)(C(=O)O)CC1 [CBK307147] | 87.9%
CCn1cc(C(=O)NN)c(=O)c2cc(F)c(N3CCSCC3)cc21 [CBK307148] | 98.8%

Structure (SMILES) | viability at 28.5 h, 10 µM
Cc1nnc(N2CCn3nc(C(O)Cc4ccccc4)cc3C2)s1 (stereo not drawn) [CBK307152] | 86%
Cc1cc(-c2cn3cc(C(=O)N(C)CC(C)O)nc3c(=O)n2C)c(C)o1 (stereo not drawn) [CBK307154] | 88%
COCCn1cnnc1CN(C)C(=O)NC(C)c1nc2ccccc2[nH]1 (stereo not drawn) [CBK307155] | 99.6%
CNc1nc(NCCc2cnc(=O)n(C)c2O)cc(C2CCOC2)n1 (stereo not drawn) [CBK307156] | 105%
O=C(CCc1cn2ccccc2n1)NCc1cc2n(n1)CCCNC2 [CBK307157] | 88.8%
Cc1cc(=O)[nH]c(C)c1C(=O)N1CCC(N2CCCC(CO)C2)CC1 (stereo not drawn) [CBK307158] | 103%
COCC1(C(=O)N2CC(=O)N(c3ccccc3C#N)CC2C)CCC1 (stereo not drawn) [CBK307159] | 89%
Cc1cc(-c2cn3cc(C(=O)NCCN(C)C)nc3c(=O)n2C)c(C)o1 [CBK307160] | 94.3%
CCCOCCCn1ccc2nc(OC)c(C#N)cc2c1=O [CBK307162] | 88%
Cc1ccc(-n2cccn2)cc1S(=O)(=O)NCCN1CCCCC1CO (stereo not drawn) [CBK307163] | 122%
CCn1cc(C(=O)N2CCOC(C(=O)O)C2)c(=O)c2ccc(C)nc21 (stereo not drawn) [CBK307165] | 83.5%
NC1CC(c2cc(NCCOc3ccccc3Cl)ncn2)C1 (stereo not drawn) [CBK307167] | 73.7%
CCc1nc(N)nc(N2CCC3(CCC(CNC(C)=O)O3)CC2)c1C (stereo not drawn) [CBK307168] | 100%
CCOc1ccc(Cl)cc1CN(C)C(=O)NC(C)CN1CCOCC1 (stereo not drawn) [CBK307170] | 92.4%
CCCc1nnc(NC(=O)CN2CCc3c(c(CO)nn3C)C2)s1 [CBK307172] | 98.4%
CCn1ccnc1CN1CCCC(CCc2ccccc2F)C1 (stereo not drawn) [CBK307173] | 99.3%
Cc1cc(C)n(CCCC(=O)N2CC3(CCNCC3)CC2C(=O)O)n1 (stereo not drawn) [CBK307174] | 89.5%
CCCNC(=O)c1nn2c(c1Cl)NC(c1cccs1)CC2C(F)(F)F (stereo not drawn) [CBK307177] | 90.3%
COCCNC(=O)c1nn2c(c1Br)NC(c1cccs1)CC2C(F)(F)F (stereo not drawn) [CBK307178] | 84.5%
Cc1cc(C(=O)NC(Cc2ccncc2)C2CC(O)C2)c(C)o1 (stereo not drawn) [CBK307181] | 96.5%
COc1cc(NC(=O)NCc2cncn2CC(C)C)c2ncccc2c1 [CBK307182] | 52.1%
CC(C)CC(NC(=O)Cc1cccc(O)c1)c1nnc2n1CCNCC2 (stereo not drawn) [CBK307183] | 98.3%
CCn1c(C2CCN(C(=O)c3cc(C(F)(F)F)n[nH]3)CC2)nn(C)c1=O [CBK307184] | 88.9%

Structure (SMILES) | viability at 28.5 h, 10 µM
Cc1cc(C)n(CC(=O)NCCCn2ccnc2C(C)C)c(=O)n1 [CBK307185] | 92.4%
Cc1cc(F)ccc1OC1(C(=O)O)CCN(Cc2ccoc2)CC1 [CBK307187] | 104%
Cc1cccc(C(=O)NC(CC(C)C)c2nnc3n2CCNCC3)c1O (stereo not drawn) [CBK307191] | 99.6%
Clc1ccc(OCCCn2ccnc2)c(CN2CCSCC2)c1 [CBK307194] | 104%
Cc1nn(C)c(C)c1CCC(=O)NCC1CN(c2ccccc2)CCO1 (stereo not drawn) [CBK307199] | 103%
COc1ccccc1CC(=O)N[C@@H]1CCN(Cc2cccnc2)C[C@H]1O [CBK307200] | 100%
Cn1ccnc1CN1C[C@@H]2CN(C(=O)C3CCCC3)C[C@]2(C(=O)O)C1 [CBK307201] | 102%
CCCn1ccnc1CN1CCCC(CC2CC2)(C(=O)O)C1 (stereo not drawn) [CBK307205] | 100%
CCCCSc1nc(N)cc(N2CCCC(C(=O)N3CCOCC3)C2)n1 (stereo not drawn) [CBK307210] | 75.2%
COCCn1ccnc1C1CCCN(C(=O)COc2ccccc2Cl)C1 (stereo not drawn) [CBK307211] | 90.2%
CCn1cc(NC(=O)NC2CCN(c3ncccc3C#N)CC2)c(C)n1 [CBK307213] | 93.1%
Cc1nc(C(=O)N2CCn3nc(C(O)Cc4ccccc4)cc3C2)cs1 (stereo not drawn) [CBK307214] | 98.5%
CN(C)c1ccc(-c2ncnn2CC(F)(F)F)cn1 [CBK307215] | 88%
CCCS(=O)(=O)N1CCCC(Cc2ccc(F)cc2F)(C(=O)OCC)C1 (stereo not drawn) [CBK307221] | 85.5%
CCn1cc(S(=O)(=O)NCc2ccc3[nH]c4c(c3c2)CCCC4)cn1 [CBK307225] | 100%
Cc1ccc(OC2(C(=O)N3CCCC3C(F)(F)F)CCNCC2)cc1 (stereo not drawn) [CBK307226] | 82.5%
COc1ccccc1-n1nc(-c2ccncc2)nc1C1CCOCC1 [CBK307229] | 95%
CCN(CC1CCOCC1)C(=O)Cn1c(C)cc(=O)c2ccccc21 [CBK307230] | 88.7%
COc1cccc(C(=O)NCCC(=O)N2CCc3c(nc[nH]c3=O)C2)c1 [CBK307231] | 103%
CNc1nc(C)c(C(=O)N2CCCC(COc3ccc(F)cc3)C2)s1 (stereo not drawn) [CBK307234] | 103%
COCCc1nc(C2CCC2)n(Cc2ccccc2C)n1 [CBK307238] | 91.8%
